The record followed here is paper PMC8617627, “Novel DYRK1A Inhibitor Rescues Learning and Memory Deficits in a Mouse Model of Down Syndrome” (Pharmaceuticals, 2021).

SMILES strings stand for the structures. Read-outs that look alike come from different tables or passages of the source.

What all share (experiment): Kinase profile (33P ATP filter binding)
Holding throughout (assay type): biochemical

Test [1] deals with MNK1 (Homo sapiens, UniProt Q9BUB5). Particulars: read-out: Remaining protein kinase activity. As to the method:
(§1) The compounds were diluted to the appropriate concentration. The compounds were added to a “mother plate” consisting of samples, controls, and blanks. These serve as the source for “daughter plates” which are stored at −20 °C until assay initiation. Protein Kinases: Enzyme/Substrate mixture was added to the compound, and the compounds were incubated for five minutes at room temperature (RT). ^33P ATP was added to the compounds to initiate the assay. Orthophosphoric acid was added to the compounds to halt the assay. Assay components were harvested onto P81 filter plates, filter plates were air-dried, scintillation fluid was added to plates, and counts were read on a Topcount NXT. A mean percentage activity was calculated.

Test [2] deals with SmMLCK (Homo sapiens, UniProt Q15746). Particulars: read-out: Remaining protein kinase activity. As to the method: as §1
For test [3], the target named is RSK1 (Homo sapiens, UniProt Q15418). Particulars: read-out: Remaining protein kinase activity. As to the method:
as §1

Test [4] has as its target T1, EPH-B2 (Homo sapiens, UniProt P29323).
T1 sequence (P29323 19-1055): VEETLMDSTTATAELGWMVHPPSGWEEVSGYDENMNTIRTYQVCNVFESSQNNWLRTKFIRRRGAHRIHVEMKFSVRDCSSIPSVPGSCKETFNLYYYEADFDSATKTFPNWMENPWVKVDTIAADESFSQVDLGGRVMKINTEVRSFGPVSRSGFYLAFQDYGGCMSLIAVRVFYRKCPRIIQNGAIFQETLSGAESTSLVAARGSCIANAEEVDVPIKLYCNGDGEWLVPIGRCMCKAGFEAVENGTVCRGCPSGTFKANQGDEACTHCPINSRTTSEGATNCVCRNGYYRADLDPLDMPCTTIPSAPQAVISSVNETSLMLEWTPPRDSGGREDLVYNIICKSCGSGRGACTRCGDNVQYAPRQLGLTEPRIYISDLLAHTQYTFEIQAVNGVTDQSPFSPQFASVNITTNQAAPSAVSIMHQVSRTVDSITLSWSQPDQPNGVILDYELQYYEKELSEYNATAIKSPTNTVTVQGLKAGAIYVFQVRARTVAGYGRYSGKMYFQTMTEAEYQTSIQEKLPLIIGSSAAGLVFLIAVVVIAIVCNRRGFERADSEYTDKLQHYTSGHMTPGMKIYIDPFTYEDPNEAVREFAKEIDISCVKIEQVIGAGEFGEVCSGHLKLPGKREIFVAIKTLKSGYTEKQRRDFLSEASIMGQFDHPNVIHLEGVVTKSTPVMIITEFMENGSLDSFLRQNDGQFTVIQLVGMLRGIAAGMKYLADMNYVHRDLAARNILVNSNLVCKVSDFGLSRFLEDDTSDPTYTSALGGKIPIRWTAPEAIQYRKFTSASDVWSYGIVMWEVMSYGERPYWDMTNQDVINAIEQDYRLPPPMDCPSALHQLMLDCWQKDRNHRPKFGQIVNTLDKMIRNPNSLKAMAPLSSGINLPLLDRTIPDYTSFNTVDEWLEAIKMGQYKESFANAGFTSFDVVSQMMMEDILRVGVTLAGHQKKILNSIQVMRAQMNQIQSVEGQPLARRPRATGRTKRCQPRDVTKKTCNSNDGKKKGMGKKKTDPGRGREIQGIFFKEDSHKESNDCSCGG
As to the method:
as §1

Test [5] addresses PAK2 (Homo sapiens, UniProt Q13177). The following applies: read-out: Remaining protein kinase activity. As to the method:
as §1

The target of test [6] is CK1δ (Homo sapiens, UniProt P48730). The following applies: read-out: Remaining protein kinase activity. As to the method:
as §1

Test [7] addresses T2, ULK1 (Homo sapiens, UniProt O75385).
T2 sequence (O75385 1-1050): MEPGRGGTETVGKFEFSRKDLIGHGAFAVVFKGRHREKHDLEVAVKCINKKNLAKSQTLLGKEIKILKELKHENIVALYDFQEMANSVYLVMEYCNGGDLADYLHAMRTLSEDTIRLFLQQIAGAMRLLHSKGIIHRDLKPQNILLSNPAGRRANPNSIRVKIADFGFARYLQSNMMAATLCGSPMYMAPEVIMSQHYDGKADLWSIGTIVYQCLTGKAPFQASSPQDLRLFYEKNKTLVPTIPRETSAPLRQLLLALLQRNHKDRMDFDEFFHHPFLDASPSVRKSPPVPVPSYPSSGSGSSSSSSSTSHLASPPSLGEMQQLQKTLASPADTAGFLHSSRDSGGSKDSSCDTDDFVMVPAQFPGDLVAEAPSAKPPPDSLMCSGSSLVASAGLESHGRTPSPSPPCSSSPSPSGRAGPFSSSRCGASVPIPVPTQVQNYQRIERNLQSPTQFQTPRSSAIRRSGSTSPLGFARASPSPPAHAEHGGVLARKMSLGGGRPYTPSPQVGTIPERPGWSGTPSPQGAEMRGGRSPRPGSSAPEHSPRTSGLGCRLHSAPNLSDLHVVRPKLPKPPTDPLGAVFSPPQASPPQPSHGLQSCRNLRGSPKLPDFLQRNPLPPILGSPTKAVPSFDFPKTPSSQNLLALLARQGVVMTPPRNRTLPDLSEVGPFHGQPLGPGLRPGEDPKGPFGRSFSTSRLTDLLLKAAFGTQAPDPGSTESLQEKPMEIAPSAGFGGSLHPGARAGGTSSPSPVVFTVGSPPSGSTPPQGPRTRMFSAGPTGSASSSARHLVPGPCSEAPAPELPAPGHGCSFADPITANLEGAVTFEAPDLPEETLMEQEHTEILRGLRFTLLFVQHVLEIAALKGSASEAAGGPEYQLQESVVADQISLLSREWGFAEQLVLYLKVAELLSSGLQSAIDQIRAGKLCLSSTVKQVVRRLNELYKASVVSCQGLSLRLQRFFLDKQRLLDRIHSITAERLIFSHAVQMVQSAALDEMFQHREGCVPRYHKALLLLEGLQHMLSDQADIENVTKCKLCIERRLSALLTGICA
How it is done: as §1

Chain of MNK1 (Q9BUB5 whole entry): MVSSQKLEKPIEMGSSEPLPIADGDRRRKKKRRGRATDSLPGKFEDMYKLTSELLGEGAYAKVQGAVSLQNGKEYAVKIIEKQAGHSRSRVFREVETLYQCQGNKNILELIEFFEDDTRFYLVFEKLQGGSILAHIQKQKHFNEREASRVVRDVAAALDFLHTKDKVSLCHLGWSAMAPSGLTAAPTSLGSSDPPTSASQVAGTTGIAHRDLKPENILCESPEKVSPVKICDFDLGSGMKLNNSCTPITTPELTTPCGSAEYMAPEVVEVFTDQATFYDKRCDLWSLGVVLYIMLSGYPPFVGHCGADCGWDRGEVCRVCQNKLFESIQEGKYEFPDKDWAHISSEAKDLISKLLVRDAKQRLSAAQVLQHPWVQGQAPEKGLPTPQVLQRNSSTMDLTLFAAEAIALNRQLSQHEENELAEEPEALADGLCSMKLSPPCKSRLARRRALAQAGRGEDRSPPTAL
Chain of PAK2 (Q13177 whole entry): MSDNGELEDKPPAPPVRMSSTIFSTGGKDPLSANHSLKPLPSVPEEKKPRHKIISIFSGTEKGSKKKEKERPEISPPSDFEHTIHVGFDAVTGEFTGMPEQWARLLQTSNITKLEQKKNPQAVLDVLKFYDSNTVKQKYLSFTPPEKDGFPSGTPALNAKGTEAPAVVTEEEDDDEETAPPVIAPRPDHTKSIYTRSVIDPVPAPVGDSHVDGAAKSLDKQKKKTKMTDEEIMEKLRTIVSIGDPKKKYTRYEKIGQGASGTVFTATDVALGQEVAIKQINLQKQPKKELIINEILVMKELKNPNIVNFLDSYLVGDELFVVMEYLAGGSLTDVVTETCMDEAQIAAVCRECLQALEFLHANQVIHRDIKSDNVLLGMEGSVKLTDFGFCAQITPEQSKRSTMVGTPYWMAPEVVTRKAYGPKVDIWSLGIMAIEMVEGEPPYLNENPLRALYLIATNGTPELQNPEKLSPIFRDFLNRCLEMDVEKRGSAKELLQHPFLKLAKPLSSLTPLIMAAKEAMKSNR
Chain of RSK1 (Q15418 whole entry, species assumed): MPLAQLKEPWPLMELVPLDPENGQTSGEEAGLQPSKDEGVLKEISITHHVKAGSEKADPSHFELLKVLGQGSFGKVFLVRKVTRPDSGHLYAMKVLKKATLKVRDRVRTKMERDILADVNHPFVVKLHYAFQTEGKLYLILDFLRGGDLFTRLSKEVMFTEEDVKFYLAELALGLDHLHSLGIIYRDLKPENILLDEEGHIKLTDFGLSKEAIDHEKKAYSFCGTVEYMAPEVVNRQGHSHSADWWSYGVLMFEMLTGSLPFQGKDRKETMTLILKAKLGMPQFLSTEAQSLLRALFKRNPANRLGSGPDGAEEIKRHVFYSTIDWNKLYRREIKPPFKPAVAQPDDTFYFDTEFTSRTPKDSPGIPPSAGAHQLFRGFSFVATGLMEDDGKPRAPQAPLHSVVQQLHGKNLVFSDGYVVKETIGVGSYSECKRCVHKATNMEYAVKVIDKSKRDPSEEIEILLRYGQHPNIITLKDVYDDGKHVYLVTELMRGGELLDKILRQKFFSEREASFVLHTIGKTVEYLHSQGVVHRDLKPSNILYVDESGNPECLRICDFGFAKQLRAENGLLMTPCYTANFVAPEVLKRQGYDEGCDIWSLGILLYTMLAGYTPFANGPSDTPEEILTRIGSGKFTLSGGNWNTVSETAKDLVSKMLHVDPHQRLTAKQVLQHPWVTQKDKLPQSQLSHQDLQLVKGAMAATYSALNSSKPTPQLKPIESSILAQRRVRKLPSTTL
Chain of CK1δ (P48730 whole entry): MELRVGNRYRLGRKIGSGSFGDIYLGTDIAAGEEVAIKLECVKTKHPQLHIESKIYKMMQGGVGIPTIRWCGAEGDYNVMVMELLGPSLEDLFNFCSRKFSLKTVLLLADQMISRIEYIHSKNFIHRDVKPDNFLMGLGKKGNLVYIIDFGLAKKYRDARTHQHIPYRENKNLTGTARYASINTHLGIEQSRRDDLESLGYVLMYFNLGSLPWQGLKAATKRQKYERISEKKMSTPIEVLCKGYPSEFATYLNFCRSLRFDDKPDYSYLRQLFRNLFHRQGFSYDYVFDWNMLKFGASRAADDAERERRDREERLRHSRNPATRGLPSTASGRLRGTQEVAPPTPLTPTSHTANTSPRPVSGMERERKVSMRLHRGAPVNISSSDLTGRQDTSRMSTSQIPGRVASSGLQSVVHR
Chain of SmMLCK (Q15746 923-1914): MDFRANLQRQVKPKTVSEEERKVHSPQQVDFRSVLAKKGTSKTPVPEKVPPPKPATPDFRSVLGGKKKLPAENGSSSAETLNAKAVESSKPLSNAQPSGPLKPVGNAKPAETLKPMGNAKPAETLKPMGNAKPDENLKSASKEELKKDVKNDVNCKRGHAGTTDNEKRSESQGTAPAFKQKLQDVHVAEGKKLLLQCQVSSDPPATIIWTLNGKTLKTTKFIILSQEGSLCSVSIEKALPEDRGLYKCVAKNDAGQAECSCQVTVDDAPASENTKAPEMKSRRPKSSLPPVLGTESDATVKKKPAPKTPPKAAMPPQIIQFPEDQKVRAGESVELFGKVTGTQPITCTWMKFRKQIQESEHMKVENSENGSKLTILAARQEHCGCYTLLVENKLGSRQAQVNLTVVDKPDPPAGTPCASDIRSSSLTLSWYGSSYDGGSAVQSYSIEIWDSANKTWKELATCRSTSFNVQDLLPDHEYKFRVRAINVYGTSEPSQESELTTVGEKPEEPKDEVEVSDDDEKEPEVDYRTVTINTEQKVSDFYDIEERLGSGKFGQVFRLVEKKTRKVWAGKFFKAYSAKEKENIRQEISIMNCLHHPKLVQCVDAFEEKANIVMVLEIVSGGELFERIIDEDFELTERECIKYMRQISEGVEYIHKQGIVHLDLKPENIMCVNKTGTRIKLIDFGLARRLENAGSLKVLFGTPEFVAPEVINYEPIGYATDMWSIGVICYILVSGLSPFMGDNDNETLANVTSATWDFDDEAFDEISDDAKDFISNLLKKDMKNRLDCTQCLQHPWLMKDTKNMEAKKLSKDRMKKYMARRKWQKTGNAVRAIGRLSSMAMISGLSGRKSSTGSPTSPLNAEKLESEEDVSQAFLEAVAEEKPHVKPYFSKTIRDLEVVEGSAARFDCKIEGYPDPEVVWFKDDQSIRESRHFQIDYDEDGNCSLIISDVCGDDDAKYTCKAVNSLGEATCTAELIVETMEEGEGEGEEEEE

Broadly, the remaining activity is the signal under treatment as a percentage of the control signal. For the molecule `COc1ccc2sc(-c3cncc(NC(C)=O)c3)nc2c1` [PST-001, N-(5-(5-Methoxybenzo[d]thiazol-2-yl)pyridin-3-yl)acetamide], the remaining activity at 1 µM in test [1] came out at 111%; in test [2] it was 118%; in test [3], 99%; in test [5] it was 114%; in test [6], 99%. Further, the remaining activity at 100 µM in test [1] came out at 94%; in test [2], 99%; in test [3], 88%; in test [5], 122%; in test [6] it was 59%. Moreover, the “Remaining protein kinase activity” value in test [4] (1 μM) came out at 137%; in test [4] (100 μM), 125%; in test [7] (1 μM), 129%; in test [7] (100 μM) it was 120%.
As for `COc1ccc2sc(-c3cncc(N)c3)nc2c1` [compound 1, 5-(5-Methoxybenzo[d]thiazol-2-yl)pyridin-3-amine], the remaining activity at 1 µM came out at 97% in test [1] (MNK1, 1 μM); 98% in test [2]; 99% in test [3] (RSK1, 1 μM); 110% in test [5] (PAK2, 1 μM); 107% in test [6] (CK1δ, 1 μM). The remaining activity at 100 µM in test [1] (MNK1, 100 μM) came to 20%; in test [2], 41%; in test [3] (RSK1, 100 μM) it was 42%; in test [5] (PAK2, 100 μM), 103%; in test [6] (CK1δ, 100 μM), 13%. The “Remaining protein kinase activity” value in test [4] (1 μM) is given as 136%; in test [4] (100 μM), 96%; in test [7] (1 μM) it was 116%; in test [7] (100 μM) it was 77%.
